Patent US8389236B2, “Assay” (Otago Innovation Limited, priority 2005, dated 2013)

Assays:
[1] = tested on: HIV-1 gag/pol −1 frameshift signal sequence (HIV-1 frameshift construct); assay: Stably transfected dual fluorescent reporter recoding assay in Flp-In CV1 cells (−1 frame construct); format: cell-based; settings: for DsRed/EGFP ratio / Percentage decrease in ratio / Minus 1 Frameshift Construct EGFP signal, Average / Minus 1 Frameshift Construct DsRed signal, Average: 120 hours; for DsRed/EGFP ratio / Percentage decrease in ratio: stable Flp-In CV1 cells; for DsRed/EGFP ratio: not normalised to Null 0, expressed as a percentage; for Percentage decrease in ratio: vs no drug; for Minus 1 Frameshift Construct EGFP signal, Average: 485 excitation 515 emission; for Minus 1 Frameshift Construct DsRed signal, Average: 535 excitation 590 emission
Method: The translational recoding construct described above was excised via Hind III and Not I restrictions sites and ligated into a Flp-In™ pcDNA5/FRT expression vector (Invitrogen Life Technologies) before being stably transformed into Flp-In™ CV1 cells (Invitrogen Life Technologies) according to the manufacturer's instructions.
Flp-In CV1 cells (CV1 cells), as described in Example 2, transfected with the −1 frame construct, and untransfected CV1 cells were grown, harvested, trypsinised, washed and diluted to 1×10^5 cells/ml all under standard conditions.
Cells were then seeded in 96 well plates under standard conditions. The plates were then incubated for 120 hours at 37° C.
(§1) The cells were washed 3 times with Phosphate Buffered Saline (PBS) to remove any traces of culture medium. 100 ul of Passive Lysis buffer (Promega) was added. The cells were frozen. The frozen cells were then thawed and fluorescence intensity was read in the Tecan Genios Pro plate reader.
Plate reader setting were as follows:
Filters 485 excitation, 515 emission
Filters 535 excitation, 590 emission
As a Null 0 frameshift construct was not used in this experiment ratios of the DsRed to EGFP signal were calculated to take into account the decrease in the EGFP signal with increasing drug concentrations.
The calculation was similar to example 3, with the counts averaged, the control cell counts removed before working out the ratio of the DsRed signal to the EGFP signal. Normalisation using a Null 0 frame construct could not be performed, with the results below being expressed as a percentage. The calculation was a follows: [[DsRed signal: HIV-1 frameshift construct]/[EGFP signal: HIV-1 frameshift construct]]

[2] = tested on: HIV-1 gag/pol −1 frameshift signal sequence (HIV-1 frameshift construct); assay: Dual fluorescent reporter (EGFP/DsRed) recoding assay in transiently transfected COS-7 cells, with Null 0 control construct; format: cell-based; settings: for Minus 1 Frameshift Construct EGFP signal, Average / Null 0 Frameshift Construct EGFP signal, Average: 485 excitation 520-P emission; for Minus 1 Frameshift Construct DsRed signal, Average / Null 0 Frameshift Construct DsRed signal, Average: 525 excitation 600LP emission
Method: Mammalian COS-7 cells were grown, harvested, trypsinised, washed and diluted to 1×10^5 cells/ml all under standard conditions.
The diluted cells were then split into two equal portions. One portion was transiently transfected with the recoding construct, and other with the Null 0 frame control construct. Transient transfection was performed using 2 μL of FuGENE® 6 transfection reagent (Roche) and 500 ng of DNA for every mL of cells, in accordance with the manufacturing instructions.
Transfected cells were seeded in 24 well plates under standard conditions. Cycloheximide was added in triplicate at 50 nM and the plates were then incubated for 48 hours at 37° C.
as §1, with “and transferred to a 96 well plate, and” for “and”, “BMG PolarStar” for “Tecan Genios Pro”
Plate reader settings were as follows:
Filters 485 excitation, 520-P emission
Filters 544 excitation, 590 emission
[[DsRed signal: HIV-1 frameshift construct]/[EGFP signal: HIV-1 frameshift construct]]/[[DsRed signal: Null 0 frameshift construct]/[EGFP signal: Null 0 frameshift construct]]
The diluted cells were then split into two equal portions. One portion was transfected, as described in Example 3, with the recoding construct, and other with the Null 0 frame control construct.
Cells were then seeded in 24 well plates under standard conditions. Anisomycin was added in triplicate at 50 nM and the plates were then incubated for 48 hours at 37° C.
The cells were prepared as described in examples 3 and 4.
DsRed signal at 525 excitation, 600LP emission
EGFP signal at 485 excitation, 520-P emission
Frameshift figures, shown in Table 5, were calculated using the formula shown in Example 3 using data from Tables 1, 2, 3 and 4.
Transfected cells were prepared as described in Example 5, and treated with 0 nM (no drug) 100 nM, 200 nM, 300 nM, 400 nM and 500 nM concentrations of anisomycin.
Incubation, plate reader setting and readings were as described in Example 5.
For the anisomycin titrations, the frameshift figures, shown in Table 10, were calculated using the formula shown in Example 3 using data from Tables 6, 7, 8 and 9.

[3] = 50 nM, 48 hours, 485 excitation, 520-P emission
[4] = 50 nM, 48 hours, 544 excitation, 590 emission
[5] = 100 nM, COS-7, 525/600LP filters, vs no drugs

## COc1ccc(C[C@H]2NC[C@H](O)[C@H]2OC(C)=O)cc1 [Anisomycin]
[1]; 50 nM
  DsRed/EGFP ratio: 7.81%
  Percentage decrease in ratio: −1.47%
  Minus 1 Frameshift Construct EGFP signal, Average: 12588
  Minus 1 Frameshift Construct DsRed signal, Average: 1348
[1]; 100 nM
  DsRed/EGFP ratio: 7.60%
  Percentage decrease in ratio: 1.17%
  Minus 1 Frameshift Construct EGFP signal, Average: 12188
  Minus 1 Frameshift Construct DsRed signal, Average: 1301
[1]; 500 nM
  DsRed/EGFP ratio: 1.44%
  Percentage decrease in ratio: 81.34%
  Minus 1 Frameshift Construct EGFP signal, Average: 8977
  Minus 1 Frameshift Construct DsRed signal, Average: 795
[1]; 1000 nM
  DsRed/EGFP ratio: −0.81%
  Percentage decrease in ratio: 110.53%
  Minus 1 Frameshift Construct EGFP signal, Average: 8386
  Minus 1 Frameshift Construct DsRed signal, Average: 704
[1]; 2000 nM
  DsRed/EGFP ratio: −3.13%
  Percentage decrease in ratio: 140.70%
  Minus 1 Frameshift Construct EGFP signal, Average: 7681
  Minus 1 Frameshift Construct DsRed signal, Average: 641
[1]; range between 50 nM and 2000 nM, stable cells, result in words
  % decrease in ratio over concentration range: dose responsive effect
[2]; 50 nM, 48 hours, COS-7, 544/590 filters
  decrease in frameshift from the original (no drug) value: 5.3%
[2]; 50 nM, 48 hours, COS-7, DsRed 544 excitation/590 emission, EGFP 485/520-P, normalised to Null 0 construct
  Frameshift: 5.64%
[2]; 50 nM, 48 hours, COS-7, vs no drug control, 544/590 filters
  absolute change frameshift efficiency: 0.32%
[2]; [3]
  EGFP signal, HIV-1 frameshift construct, average: 32666 RFU
  EGFP signal, HIV-1 frameshift construct, average minus control: 32336 RFU
  EGFP signal, Null 0 frameshift construct, average: 56491 RFU
  EGFP signal, Null 0 frameshift construct, average minus control: 56161 RFU
[2]; [4]
  DsRed signal, HIV-1 frameshift construct, average: 1975 RFU
  DsRed signal, HIV-1 frameshift construct, average minus control: 1891 RFU
  DsRed signal, Null 0 frameshift construct, average: 58293 RFU
  DsRed signal, Null 0 frameshift construct, average minus control: 58209 RFU
[2]; 100 nM
  Minus 1 Frameshift Construct EGFP signal, Average: 31923
  Null 0 Frameshift Construct EGFP signal, Average: 55732
  Minus 1 Frameshift Construct DsRed signal, Average: 3072
  Null 0 Frameshift Construct DsRed signal, Average: 55345
[2]; [5]
  Percentage decrease in frameshift: 1.39%
  absolute change in frameshift efficiency: 0.11%
[2]; 100 nM, COS-7, 525/600LP filters, vs no drugs, listed as anisomycin
  Percentage decrease in frameshift: 1.4%
[2]; 100 nM, COS-7, DsRed 525 excitation/600LP emission
  Frameshift: 7.89%
[2]; 100 nM, COS-7, DsRed 525 excitation/600LP emission, listed as anisomycin
  Frameshift: 7.88%
[2]; 200 nM
  Minus 1 Frameshift Construct EGFP signal, Average: 37862
  Null 0 Frameshift Construct EGFP signal, Average: 51856
  Minus 1 Frameshift Construct DsRed signal, Average: 3555
  Null 0 Frameshift Construct DsRed signal, Average: 50020
[2]; 200 nM, COS-7, 525/600LP filters, vs no drugs
  Percentage decrease in frameshift: −2.21%
[2]; 200 nM, COS-7, DsRed 525 excitation/600LP emission
  Frameshift: 8.17%
[2]; 300 nM
  Minus 1 Frameshift Construct EGFP signal, Average: 32560
  Null 0 Frameshift Construct EGFP signal, Average: 38929
  Minus 1 Frameshift Construct DsRed signal, Average: 2995
  Null 0 Frameshift Construct DsRed signal, Average: 36774
[2]; 300 nM, COS-7, 525/600LP filters, vs no drugs
  Percentage decrease in frameshift: 1.47%
[2]; 300 nM, COS-7, DsRed 525 excitation/600LP emission
  Frameshift: 7.88%
[2]; 400 nM
  Minus 1 Frameshift Construct EGFP signal, Average: 18630
  Null 0 Frameshift Construct EGFP signal, Average: 18532
  Minus 1 Frameshift Construct DsRed signal, Average: 1804
  Null 0 Frameshift Construct DsRed signal, Average: 16734
[2]; 400 nM, COS-7, 525/600LP filters, vs no drugs
  Percentage decrease in frameshift: 8.53%
[2]; 400 nM, COS-7, DsRed 525 excitation/600LP emission
  Frameshift: 7.32%
[2]; 500 nM
  Minus 1 Frameshift Construct EGFP signal, Average: 9376
  Null 0 Frameshift Construct EGFP signal, Average: 8119
  Minus 1 Frameshift Construct DsRed signal, Average: 1121
  Null 0 Frameshift Construct DsRed signal, Average: 7045
[2]; 500 nM, COS-7, 525/600LP filters, vs no drugs
  Percentage decrease in frameshift: 16.21%
[2]; 500 nM, COS-7, DsRed 525 excitation/600LP emission
  Frameshift: 6.70%
[2]; result in words
  effect on −1 frameshifting: antagonists to −1 frameshifting
